Reference: article PMC12302228 (RSC Medicinal Chemistry, 2025)
≈ marks a conversion by molar mass, not a printed value. Where two headings read alike, the source gives them in different places.

Key:
HL-60 = test: Antiproliferative activity, MTT assay; type: cell-based, human; conditions: mean ± SEM
physchem = conditions: ultrapure water, 37 °C, kinetic from dmso stock
MCF7 = test: Antiproliferative activity, SRB assay; type: cell-based, human; conditions: mean ± SEM
M21 = test: Antiproliferative activity, SRB assay; type: cell-based, human; conditions: mean ± SEM
THP-1 = test: Antiproliferative activity, MTT assay; type: cell-based, human; conditions: mean ± SEM
HT-29 = test: Antiproliferative activity, SRB assay; type: cell-based, human; conditions: mean ± SEM
MOLM-13 = test: Antiproliferative activity, MTT assay; type: cell-based, human; conditions: read-out: IC50 MOLM-13; 48 h of treatment; mean ± SEM
HT-1080 = test: Antiproliferative activity, SRB assay; type: cell-based, human; conditions: read-out: IC50 HT-1080; 48 h of treatment; mean ± SEM
[1] = read-out: IC50 HL-60, 48 h of treatment
[2] = read-out: IC50 MCF7, 48 h of treatment
[3] = read-out: IC50 M21, 48 h of treatment
[4] = read-out: IC50 THP-1, 48 h of treatment
[5] = read-out: IC50 HT-29, 48 h of treatment
[6] = Homo sapiens, MCF7, 48 h, read-out: IC50 MCF7, 48 h of treatment
[7] = Homo sapiens, THP-1, 48 h, read-out: IC50 THP-1, 48 h of treatment
[8] = Homo sapiens, HL-60, 48 h, read-out: IC50 HL-60, 48 h of treatment
[9] = Homo sapiens, M21, 48 h, read-out: IC50 M21, 48 h of treatment
[10] = Homo sapiens, HT-29, 48 h, read-out: IC50 HT-29, 48 h of treatment

IC50 (HL-60; [1]) [µM]	solubility at 24 h (physchem) [µg/mL]	IC50 (MCF7; [2]) [µM]	IC50 (THP-1; [4]) [µM]	IC50 (HT-29; [5]) [µM]	IC50 (MOLM-13) [µM]	IC50 (HT-1080) [µM]	IC50 (MCF7; [6]) [µM]	IC50 (THP-1; [7]) [µM]	IC50 (HL-60; [8]) [µM]	IC50 (HT-29; [10]) [µM]	Compound	IC50 (M21; [3]) [µM]	IC50 (M21; [9]) [µM]
40 ± 10	124 ± 2	24 ± 2	4.1 ± 0.7	30 ± 1	6 ± 1	10 ± 0.8	–	–	–	–	CCCNC(=O)Nc1ccc(S(=O)(=O)Oc2cnccc2Br)cc1.Cl [Compound 33, 4-Bromopyridin-3-yl 4-(3-propylureido)benzenesulfonate hydrochloride]	40 ± 1	–
8 ± 3	26 ± 3	16 ± 1	2.4 ± 0.9	15 ± 0.8	1.9 ± 0.5	2.4 ± 0.2	–	–	–	–	CCCNC(=O)Nc1ccc(S(=O)(=O)Oc2cccnc2C(C)C)cc1.Cl [Compound 25, 2-Isopropylpyridin-3-yl 4-(3-propylureido)benzenesulfonate hydrochloride]	20 ± 1	–
> 100	173 ± 2	–	–	26 ± 2	–	–	28 ± 2	7 ± 3	–	–	CCNC(=O)Nc1ccc(S(=O)(=O)Oc2cccnc2Br)cc1.Cl [Compound 19, 2-Bromopyridin-3-yl 4-(3-ethylureido)benzenesulfonate hydrochloride]	27 ± 2	–
–	120 ± 10	–	–	–	–	–	22 ± 2	3.9 ± 0.7	30 ± 10	28 ± 2	CCCNC(=O)Nc1ccc(S(=O)(=O)Oc2cccnc2I)cc1.Cl [Compound 24, 2-Iodopyridin-3-yl 4-(3-propylureido)benzenesulfonate hydrochloride]	–	29 ± 2
13 ± 4	126 ± 5	14 ± 1	2.6 ± 0.9	10.5 ± 0.5	2.5 ± 0.9	3.3 ± 0.2	–	–	–	–	CC(C)c1ncccc1OS(=O)(=O)c1ccc(NC(=O)NCCCl)cc1.Cl [Compound 29, 2-Isopropylpyridin-3-yl 4-(3-(2-chloroethyl)ureido)benzenesulfonate hydrochloride]	9.7 ± 0.5	–
3 ± 1	154 ± 7	3.8 ± 0.3	0.9 ± 0.2	2.3 ± 0.1	0.7 ± 0.2	1.2 ± 0.2	–	–	–	–	Cl.O=C(NCCCl)Nc1ccc(S(=O)(=O)Oc2cnccc2I)cc1 [Compound 36, 4-Iodopyridin-3-yl 4-(3-(2-chloroethyl)ureido)benzenesulfonate hydrochloride]	3.5 ± 0.4	–
> 50	130 ± 10	13 ± 1	2.1 ± 0.6	14 ± 1	2.7 ± 0.5	5.9 ± 0.5	–	–	–	–	CCCNC(=O)Nc1ccc(S(=O)(=O)Oc2cnccc2I)cc1.Cl [Compound 34, 4-Iodopyridin-3-yl 4-(3-propylureido)benzenesulfonate hydrochloride]	21 ± 2	–

The next lines start with the compound.

Compound	IC50 (HL-60; [1]) [µM]	solubility at 24 h (physchem) [µg/mL]	IC50 (MCF7; [2]) [µM]	IC50 (THP-1; [4]) [µM]	IC50 (HT-29; [5]) [µM]	IC50 (MOLM-13) [µM]	IC50 (HT-1080) [µM]	IC50 (MCF7; [6]) [µM]	IC50 (THP-1; [7]) [µM]	IC50 (HL-60; [8]) [µM]	IC50 (HT-29; [10]) [µM]	IC50 (M21; [3]) [µM]	IC50 (M21; [9]) [µM]
O=C(NCCCl)Nc1ccc(S(=O)(=O)Oc2cccnc2I)cc1 [Compound 10, 2-Iodopyridin-3-yl 4-(3-(2-chloroethyl)ureido)benzenesulfonate]	6.9 ± 0.3	4.4 ± 0.1 (≈ 9.13 µM)	5 ± 1	–	9 ± 1	–	–	–	1 ± 0.1	–	–	–	9 ± 1
CCCNC(=O)Nc1ccc(S(=O)(=O)Oc2cccnc2Br)cc1 [Compound 5, 2-Bromopyridin-3-yl 4-(3-propylureido)benzenesulfonate]	19 ± 2	8 ± 1 (≈ 19.3 µM)	13 ± 1	5.9 ± 0.5	17 ± 1	2.6 ± 0.1	3.3 ± 0.2	–	–	–	–	24 ± 2	–
CCCNC(=O)Nc1ccc(S(=O)(=O)Oc2cccnc2C(C)C)cc1 [Compound 7, 2-Isopropylpyridin-3-yl 4-(3-propylureido)benzenesulfonate]	24 ± 4	7 ± 1 (≈ 18.5 µM)	–	–	–	–	–	17 ± 1	2.6 ± 0.6	–	14 ± 1	–	22 ± 2
CCNC(=O)Nc1ccc(S(=O)(=O)Oc2cnccc2C)cc1 [Compound 14, 4-Methylpyridin-3-yl 4-(3-ethylureido)benzenesulfonate]	–	49 ± 4 (≈ 146 µM)	–	6 ± 2	–	–	–	31 ± 3	–	> 100	16 ± 1	–	31 ± 3
CCCNC(=O)Nc1ccc(S(=O)(=O)Oc2cnccc2C)cc1 [Compound 17, 4-Methylpyridin-3-yl 4-(3-propylureido)benzenesulfonate]	43 ± 7	52 ± 2 (≈ 149 µM)	12 ± 1	–	12 ± 1	4 ± 0.6	7.5 ± 0.5	–	7.3 ± 0.8	–	–	24 ± 1	–
